Holding throughout (test): relative viability (nuclei count vs DMSO), 5 days (fraction); higher = more cells survive
Compound in assay [1]: COC1=CC=C(C=C1)COC2=C(C=C(C=C2)CC3=CN=C(N=C3N)N)OC [GW-2580] + C[C@]1(O)C[C@@H](c2nc(-c3ccc4ccc(-c5ccccc5)nc4c3)c3c(N)nccn32)C1 [Linsitinib] (partner 1 µM)
In a few lines: (§1)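 Lung cancer cell lines in 1536-well plates were dosed by pin tool the day after seeding, either with one drug alone or with a fixed anchor-drug dose plus five library-drug doses (not always all listed) in √10 steps. After 5 days, cells were fixed and their nuclei stained in one step (final 0.05% Triton X-100, 1% formaldehyde, 1 ug/ml Hoechst), then counted on 4× images. Relative viability is the nuclei count in treated wells divided by that in vehicle wells. Values are medians of duplicate plates.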

Compound in assay [2]: COC1=CC=C(C=C1)COC2=C(C=C(C=C2)CC3=CN=C(N=C3N)N)OC [GW-2580] + Cc1nc(NC(=O)N2CCC[C@H]2C(N)=O)sc1-c1ccnc(C(C)(C)C(F)(F)F)c1 [Alpelisib] (partner 2 µM)
In a few lines:
as §1

Compound in assay [3]: COC1=CC=C(C=C1)COC2=C(C=C(C=C2)CC3=CN=C(N=C3N)N)OC [GW-2580] + Cc1nc(Nc2ncc(C(=O)Nc3c(C)cccc3Cl)s2)cc(N2CCN(CCO)CC2)n1 [Dasatinib] (partner 0.075 µM)
The method, boiled down:
as §1

Compound in assay [4]: COC1=CC=C(C=C1)COC2=C(C=C(C=C2)CC3=CN=C(N=C3N)N)OC [GW-2580] + Nc1nc2[nH]cc(CCc3ccc(C(=O)N[C@@H](CCC(=O)O)C(=O)O)cc3)c2c(=O)[nH]1 [Pemetrexed] (partner 0.2 µM)
The method, boiled down:
as §1

Compound in assay [5]: Cc1cnc(Nc2ccc(OCCN3CCCC3)cc2)nc1Nc1cccc(S(=O)(=O)NC(C)(C)C)c1 [Fedratinib] + CS(=O)(=O)CCNCc1ccc(-c2ccc3ncnc(Nc4ccc(OCc5cccc(F)c5)c(Cl)c4)c3c2)o1 [Lapatinib] (partner 2 µM)
In a few lines:
as §1

Regarding COR-L23, the relative viability in assay [1] (first compound 0.08 µM) came out at 0.987; in assay [1] (first compound 0.8 µM), 1.2; in assay [1] (first compound 2.53 µM) it was 0.946; in assay [1] (first compound 8 µM), 1.02; in assay [2] (first compound 0.08 µM), 0.856; in assay [2] (first compound 0.8 µM), 0.83. Besides, the relative viability was 0.611 in assay [2] (first compound 2.53 µM); 0.815 in assay [2] (first compound 8 µM); 0.566 in assay [3] (first compound 0.08 µM); 0.502 in assay [3] (first compound 0.8 µM); 0.519 in assay [3] (first compound 2.53 µM); 0.464 in assay [3] (first compound 8 µM). Also, the relative viability in assay [4] (first compound 0.08 µM) is 0.197; in assay [4] (first compound 0.8 µM) it was 0.196; in assay [4] (first compound 2.53 µM), 0.205; in assay [4] (first compound 8 µM) it was 0.194; in assay [5] (first compound 0.1 µM), 1.04; in assay [5] (first compound 0.3162 µM) it was 0.999. Also, in assay [5] (first compound 1 µM), the relative viability stood at 1.07.

HCC-78: the relative viability in assay [1] (first compound 0.08 µM) stood at 0.541; in assay [1] (first compound 0.8 µM), 0.574; in assay [1] (first compound 2.53 µM) it was 0.371; in assay [1] (first compound 8 µM) it was 0.486; in assay [2] (first compound 0.08 µM) it was 0.368; in assay [2] (first compound 0.8 µM), 0.363. For the same cell line, the relative viability in assay [2] (first compound 2.53 µM) is 0.28; in assay [2] (first compound 8 µM), 0.304; in assay [3] (first compound 0.08 µM) it was 0.322; in assay [3] (first compound 0.8 µM) it was 0.467; in assay [3] (first compound 2.53 µM), 0.286; in assay [3] (first compound 8 µM), 0.298. Besides, the relative viability came out at 0.972 in assay [4] (first compound 0.08 µM); 0.939 in assay [4] (first compound 0.8 µM); 0.909 in assay [4] (first compound 2.53 µM); 0.948 in assay [4] (first compound 8 µM); 0.929 in assay [5] (first compound 0.1 µM); 0.609 in assay [5] (first compound 1 µM).

Consider NCI-H2087, for which the relative viability in assay [1] (first compound 0.08 µM) was 1.08; in assay [1] (first compound 0.8 µM) it was 0.935; in assay [1] (first compound 2.53 µM), 0.924; in assay [1] (first compound 8 µM), 0.818; in assay [2] (first compound 0.08 µM) it was 1.23; in assay [2] (first compound 0.8 µM), 0.999. Moreover, the relative viability in assay [2] (first compound 2.53 µM) came to 1.02; in assay [2] (first compound 8 µM), 0.613; in assay [3] (first compound 0.08 µM) it was 1.11; in assay [3] (first compound 0.8 µM), 0.846; in assay [3] (first compound 2.53 µM), 0.785; in assay [3] (first compound 8 µM) it was 0.774. For the same cell line, the relative viability in assay [4] (first compound 0.08 µM) came to 0.68; in assay [4] (first compound 0.8 µM), 0.713; in assay [4] (first compound 2.53 µM) it was 0.7; in assay [4] (first compound 8 µM), 0.625; in assay [5] (first compound 0.1 µM), 1.25; in assay [5] (first compound 0.3162 µM), 1.31. In addition, the relative viability in assay [5] (first compound 1 µM) came out at 0.303.

Turning to BEN, the relative viability in assay [1] (first compound 0.08 µM) was found to be 1.08; in assay [1] (first compound 0.8 µM), 1.04; in assay [1] (first compound 2.53 µM) it was 0.816; in assay [1] (first compound 8 µM) it was 0.93; in assay [2] (first compound 0.08 µM), 0.996; in assay [2] (first compound 0.8 µM), 1.07. Moreover, the relative viability turned out to be 1.04 in assay [2] (first compound 2.53 µM); 1.03 in assay [2] (first compound 8 µM); 0.267 in assay [3] (first compound 0.08 µM); 0.397 in assay [3] (first compound 0.8 µM); 0.222 in assay [3] (first compound 2.53 µM); 0.308 in assay [3] (first compound 8 µM). Further, the relative viability was determined as 1.91 in assay [4] (first compound 0.08 µM); 0.762 in assay [4] (first compound 0.8 µM); 0.615 in assay [4] (first compound 2.53 µM); 0.702 in assay [4] (first compound 8 µM); 0.665 in assay [5] (first compound 0.1 µM); 0.585 in assay [5] (first compound 0.3162 µM). Besides, the relative viability in assay [5] (first compound 1 µM) was 0.543.

As for EKVX, the relative viability in assay [1] (first compound 0.08 µM) turned out to be 0.983; in assay [1] (first compound 0.8 µM), 1.18; in assay [1] (first compound 2.53 µM) it was 0.884; in assay [1] (first compound 8 µM), 1.04; in assay [2] (first compound 0.08 µM), 0.898; in assay [2] (first compound 0.8 µM), 1.02. In addition, the relative viability in assay [2] (first compound 2.53 µM) came out at 0.91; in assay [2] (first compound 8 µM), 0.874; in assay [3] (first compound 0.08 µM), 0.613; in assay [3] (first compound 0.8 µM), 0.655; in assay [3] (first compound 2.53 µM), 0.431; in assay [3] (first compound 8 µM), 0.527. For the same cell line, the relative viability in assay [4] (first compound 0.08 µM) amounted to 0.434; in assay [4] (first compound 0.8 µM), 0.392; in assay [4] (first compound 2.53 µM), 0.355; in assay [4] (first compound 8 µM), 0.358; in assay [5] (first compound 0.1 µM), 0.209; in assay [5] (first compound 0.3162 µM), 0.206. The relative viability in assay [5] (first compound 1 µM) came out at 0.252.

Take LXF-289: the relative viability in assay [1] (first compound 0.08 µM) is 1.02; in assay [1] (first compound 0.8 µM), 0.992; in assay [1] (first compound 2.53 µM), 0.997; in assay [1] (first compound 8 µM) it was 0.858; in assay [2] (first compound 0.08 µM), 1.07; in assay [2] (first compound 0.8 µM), 1.09. Moreover, the relative viability was found to be 0.998 in assay [2] (first compound 2.53 µM); 0.907 in assay [2] (first compound 8 µM); 0.208 in assay [3] (first compound 0.08 µM); 0.267 in assay [3] (first compound 0.8 µM); 0.177 in assay [3] (first compound 2.53 µM); 0.217 in assay [3] (first compound 8 µM). Also, the relative viability amounted to 0.883 in assay [4] (first compound 0.08 µM); 0.96 in assay [4] (first compound 0.8 µM); 0.881 in assay [4] (first compound 2.53 µM); 0.85 in assay [4] (first compound 8 µM); 0.894 in assay [5] (first compound 0.1 µM); 0.883 in assay [5] (first compound 0.3162 µM). Moreover, in assay [5] (first compound 1 µM), the relative viability turned out to be 0.737.

As for NCI-H650, the relative viability in assay [1] (first compound 0.08 µM) stood at 0.94; in assay [1] (first compound 0.8 µM) it was 1.02; in assay [1] (first compound 2.53 µM), 0.547; in assay [1] (first compound 8 µM), 1.17; in assay [2] (first compound 0.08 µM), 1.26; in assay [2] (first compound 0.8 µM), 1.06. Further, the relative viability in assay [2] (first compound 2.53 µM) stood at 0.914; in assay [2] (first compound 8 µM), 1.14; in assay [3] (first compound 0.08 µM), 0.468; in assay [3] (first compound 0.8 µM), 0.538; in assay [3] (first compound 2.53 µM) it was 0.396; in assay [3] (first compound 8 µM) it was 0.424. Further, the relative viability was 1.04 in assay [4] (first compound 0.08 µM); 1.11 in assay [4] (first compound 0.8 µM); 0.792 in assay [4] (first compound 2.53 µM); 0.855 in assay [4] (first compound 8 µM); 1.07 in assay [5] (first compound 0.3162 µM); 0.347 in assay [5] (first compound 1 µM).

The values above are taken from the supplement of paper PMC10307832.
